# Columns and labels:
# [1] = test system: A549 (lung cancer cells); assay: In vitro cytotoxic activity, MTT assay, A549; type: cell-based, human; conditions: 24 h incubation with complex, mean ± standard deviation
# Experimental: (§1) To examine the possible anticancer effect of complexes 1, 2, and cisplatin, a panel of three human tumor cell lines, A549 (lung cancer cells), MCF7 (breast cancer cells) and HCT15 (colon cancer cells) was used. The different human carcinoma cell cultures (A549, MCF7, HCT15) were first seeded at the concentration of 2×10^4 cells per mL in their respective growth mediums containing 10% FBS (fetal bovine serum) in a 96-well tissue culture plate and were incubated for 72 h at 37° C., 5% CO2 in air and 90% relative humidity in a CO2 incubator. After that the cell cultures were incubated for 24 h with 100 μL of cisplatin and the complexes (1-3) having 100, 50, 25 and 12.5 μM concentrations, prepared in growth medium. Further, the cultures were incubated with 100 μL of vital mitochondrial tetrazolium dye (3-(4,5-dimethylthiazol-2-yl)-2,5-diphenyltetrazolium bromide) (0.5 mg/ml) in a CO2 incubator at 37° C. in the dark for 4 h. After incubation, purple colored formazan crystals were formed due to the reduction of dye by mitochondrial succinate dehydrogenase enzyme. The resultant crystals were solublized by adding 100 μL of dimethylsulfoxide (DMSO). The colored solution formed was thoroughly mixed and read spectrophotometrically at 570 nm with Lab systems Multiskan EX-Enzyme-linked immunosorbent assay (EX-ELISA) reader against a reagent blank. All data presented are mean±standard deviation.
# (§2) The anticancer activity of complexes 1-3 as well as cisplatin was evaluated against a panel of representative human tumor cell lines, which include, lung cancer cells (A549), breast cancer cells (MCF7) and colon cancer cells (HCT15). The results of in vitro cytotoxic activity are expressed as IC50 (concentration causing 50% reduction in cell viability) and are presented in Table 4. […] For 1, the IC50 values are closer to cisplatin. In going from 1 to 2, the substitution of two chlorine atoms by the chelating diamine ligand brought about a 1.5-3 times decrease in the antiproliferative activity of 2.
# [2] = test system: MCF7 (breast cancer cells); assay: In vitro cytotoxic activity, MTT assay, MCF7; type: cell-based, human; conditions: 24 h incubation with complex, mean ± standard deviation
# Experimental: as §1, §2
# [3] = test system: HCT15 (colon cancer cells); assay: In vitro cytotoxic activity, MTT assay, HCT15; type: cell-based, human; conditions: 24 h incubation with complex, mean ± standard deviation
# Experimental: as §1, §2
# [4] = Solubility in aqueous medium; type: physicochemical
# [5] = Cyclic voltammetry of the complexes at glassy carbon electrode; type: physicochemical; conditions: cyclic voltammetric measurements
# Experimental: The voltammetric measurements were performed by using three electrode based Auto Lab electrochemical workstation (Netherland). The working electrode was glassy carbon electrode (GCE), while Ag/AgCl and platinum were used as reference counter electrodes respectively. The weights of the chemicals were measured by using GR-2000 electrical balance. The pH of the buffer was controlled by Accumet® XL50 pH meter. For electrochemical analysis, the compounds 1 and 2 were dissolved in the ethanol as their solubility was very poor in aqueous medium. Prior to each analysis, the GCE was polished as a mirror like surface with alumina slurry on the synthetic clothe. The cyclic voltammograms for various analyses were recorded from 0.0 V to +1.3 V with a scan rate of 0.1 V/s. Electrochemical behavior may be studied using the methods described by Al-Jaroudi et al. and Seliman et al. (incorporated by reference) and well known model proteins. […]
# To get an insight into the reactivity of the complexes, the interactions of complexes 1 and 2 with model proteins, L-tyrosine, glutathione and lysozyme were studied electrochemically. The electrochemical behavior of complexes 1 and 2 in the presence of the proteins was analyzed by cyclic voltammetric technique (CV). […]
# [6] = test system: A549, MCF7 and HCT15 cells; assay: In vitro cytotoxic activity, statements on the whole panel of three tumor cell lines; type: cell-based, human
# Experimental: as §1, with “After incubation, purple colored formazan crystals were formed due to the reduction of dye by mitochondrial succinate dehydrogenase enzyme. The resultant crystals were solublized by adding 100 μL of dimethylsulfoxide (DMSO).” left out, “All data presented are mean±standard deviation.” left out
# The anticancer activity of complexes 1-3 as well as cisplatin was evaluated against a panel of representative human tumor cell lines, which include, lung cancer cells (A549), breast cancer cells (MCF7) and colon cancer cells (HCT15). […]
# [7] = biological target: T1, Lysozyme protein (Gallus gallus, UniProt P00698); assay: Interaction with lysozyme by cyclic voltammetry; design: species or system chicken; conditions: 0.2 mM complex
# T1 construct: the Lysozyme protein attained from chicken egg white; purchased Sigma-Aldrich; host or cells: chicken egg white (natural source)
# Experimental: The voltammetric measurements were performed by using three electrode based Auto Lab electrochemical workstation (Netherland). The working electrode was glassy carbon electrode (GCE), while Ag/AgCl and platinum were used as reference counter electrodes respectively. The weights of the chemicals were measured by using GR-2000 electrical balance. The pH of the buffer was controlled by Accumet® XL50 pH meter. For electrochemical analysis, the compounds 1 and 2 were dissolved in the ethanol as their solubility was very poor in aqueous medium. Prior to each analysis, the GCE was polished as a mirror like surface with alumina slurry on the synthetic clothe. The cyclic voltammograms for various analyses were recorded from 0.0 V to +1.3 V with a scan rate of 0.1 V/s. Electrochemical behavior may be studied using the methods described by Al-Jaroudi et al. and Seliman et al. (incorporated by reference) and well known model proteins. See S. S. Al-Jaroudi, M. Altaf, A. Al-Saadi, A.-N. Kawde, S. Altuwaijri, S. Ahmad and A. A. Isab, Biometals, 2015, 28, 827-844; and A. Seliman, M. Altaf, A. Kawde, M. Wazeer and A. Isab, J. Coord. Chem., 2014, 67, 3431-3443, each incorporated herein by reference in their entirety.
# Moreover, the interaction of these compounds was also explored with the Lysozyme protein attained from chicken egg white.
# T1 sequence (P00698 19-147): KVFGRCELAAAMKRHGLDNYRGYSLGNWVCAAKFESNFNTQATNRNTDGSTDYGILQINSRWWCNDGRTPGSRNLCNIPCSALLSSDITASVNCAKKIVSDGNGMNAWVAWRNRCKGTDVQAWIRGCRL
Compound,IC50 [1] [µM],IC50 [2] [µM],IC50 [3] [µM],solubility in aqueous medium [4],"stability of gold(III) center during reaction with L-tyrosine, glutathione and lysozyme [5]","antiproliferative potency, rank among the complexes ([6]; A549, MCF7, HCT15)",effect of successive addition of Lysozyme on the complex peaks [7],interaction with Lysozyme (comparison) [7],"decrease in the antiproliferative activity in going from 1 to 2 ([6]; 2 compared with 1, three cell lines)"
"NC(c1cccc2ccccc12)C(N)c1cccc2ccccc12.O.O.[Au+3].[Cl-].[Cl-].[Cl-] (stereo not drawn) [Complex 1, [Au(npen)Cl2]Cl.2H2O]",28.8 ± 4.02,11.8 ± 2.6,9.4 ± 1.93,very poor,remained stable,least active,decrease in the current intensities of the complex peaks,more significant,
[Au(npen)2]Cl3 [Complex 2],10.3 ± 2.82,7.77 ± 1.82,4.23 ± 1.31,very poor,remained stable,,decrease in the current intensities of the complex peaks,,1.5-3 times
"N.N.[Cl][Pt][Cl] [Cisplatin, cisplatin, reference compound]",42.9 ± 1.99,23.1 ± 3.78,23.1 ± 3.78,,,,,,

# Source: patent publication US10160773B2, “Method for inducing cytotoxicity in cancer cells” (King Fahd University of Petroleum and Minerals, priority 2016, dated 2018)
